Data from patent US11220504B2, “Pyrrolo[3,2-d] pyrimidine derivatives for the treatment of viral infections and other diseases” (JANSSEN SCIENCES IRELAND UNLIMITED COMPANY, priority 2012, dated 2022).

Experiments:
human TLR8 = target: T1, human TLR8 (Homo sapiens, UniProt Q9NR97); experiment: TLR8 cellular reporter assay (HEK293, NFκB-luc); type: cell-based; conditions: HEK293 cells transfected with CMV-TLR8 and NFκB-luc, 6 hours incubation; lowest effective concentration
T1 construct: expressed in transfected cells; host or cells: HEK293 cells, transient transfection with TLR8 plasmid and NFκB-luc plasmid
T1 sequence (Q9NR97 27-1041): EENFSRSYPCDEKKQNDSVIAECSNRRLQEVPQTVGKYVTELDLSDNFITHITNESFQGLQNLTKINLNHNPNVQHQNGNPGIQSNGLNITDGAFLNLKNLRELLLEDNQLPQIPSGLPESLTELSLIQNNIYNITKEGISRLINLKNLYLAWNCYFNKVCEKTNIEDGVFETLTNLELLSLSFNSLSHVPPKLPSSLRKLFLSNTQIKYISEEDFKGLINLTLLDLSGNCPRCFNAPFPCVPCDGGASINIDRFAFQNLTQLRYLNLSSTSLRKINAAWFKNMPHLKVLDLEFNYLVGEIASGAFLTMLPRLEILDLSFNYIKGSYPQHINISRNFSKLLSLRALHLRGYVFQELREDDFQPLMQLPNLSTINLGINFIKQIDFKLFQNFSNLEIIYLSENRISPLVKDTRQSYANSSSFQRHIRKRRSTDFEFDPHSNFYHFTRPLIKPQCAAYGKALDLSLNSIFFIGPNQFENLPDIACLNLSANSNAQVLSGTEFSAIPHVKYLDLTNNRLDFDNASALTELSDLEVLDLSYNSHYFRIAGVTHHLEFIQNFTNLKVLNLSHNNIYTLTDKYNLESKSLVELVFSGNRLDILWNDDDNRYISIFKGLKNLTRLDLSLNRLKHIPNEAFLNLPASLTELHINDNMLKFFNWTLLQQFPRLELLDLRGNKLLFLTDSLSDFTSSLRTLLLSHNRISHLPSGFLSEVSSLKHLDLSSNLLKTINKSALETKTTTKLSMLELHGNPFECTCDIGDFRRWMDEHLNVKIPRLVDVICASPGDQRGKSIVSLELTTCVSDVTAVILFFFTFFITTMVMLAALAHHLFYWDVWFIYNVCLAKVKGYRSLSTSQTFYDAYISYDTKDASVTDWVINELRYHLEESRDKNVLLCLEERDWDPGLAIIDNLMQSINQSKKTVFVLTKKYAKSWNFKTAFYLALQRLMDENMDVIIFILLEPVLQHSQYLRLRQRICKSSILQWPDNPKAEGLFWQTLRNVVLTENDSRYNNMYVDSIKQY
Procedure, shortened: (§1)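 HEK293 cells transiently transfected with receptor expression vector plus NFκB-luciferase reporter, exposed to compound (added in 4% DMSO) for 6 hours at 37° C, 5% CO2. Luciferase activity measured by luminescence; dose-response curves from quadruplicate measurements.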

[1] = test system: interferon-stimulated responsive elements (ISRE); experiment: Activation of ISRE promoter elements by conditioned media from PBMC (HEK-ISREluc); type: cell-based, human; conditions: Homo sapiens; conditioned media from PBMC transferred to HEK-ISREluc cells, 24 hours; lowest effective concentration; read-out: PBMC LEC
Procedure, shortened: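 Human PBMCs (≥2 donors, RPMI + 10% human AB serum, 2×10^5 cells/well) incubated overnight with compound; supernatant transferred to HEK293 cells stably carrying pISRE-Luc for 24 h, then luciferase read. LEC = compound concentration on PBMCs giving luciferase signal at least two-fold above assay SD; recombinant IFN-α-2a standard.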

human TLR7 = target: T2, human TLR7 (Homo sapiens, UniProt Q9NYK1); experiment: TLR7 cellular reporter assay (HEK293, NFκB-luc); type: cell-based; conditions: HEK293 cells transfected with CMV-TLR7 and NFκB-luc, 6 hours incubation; lowest effective concentration
T2 construct: expressed in transfected cells; host or cells: HEK293 cells, transient transfection with CMV-TLR7 plasmid and NFκB-luc plasmid
T2 sequence (Q9NYK1 27-1049): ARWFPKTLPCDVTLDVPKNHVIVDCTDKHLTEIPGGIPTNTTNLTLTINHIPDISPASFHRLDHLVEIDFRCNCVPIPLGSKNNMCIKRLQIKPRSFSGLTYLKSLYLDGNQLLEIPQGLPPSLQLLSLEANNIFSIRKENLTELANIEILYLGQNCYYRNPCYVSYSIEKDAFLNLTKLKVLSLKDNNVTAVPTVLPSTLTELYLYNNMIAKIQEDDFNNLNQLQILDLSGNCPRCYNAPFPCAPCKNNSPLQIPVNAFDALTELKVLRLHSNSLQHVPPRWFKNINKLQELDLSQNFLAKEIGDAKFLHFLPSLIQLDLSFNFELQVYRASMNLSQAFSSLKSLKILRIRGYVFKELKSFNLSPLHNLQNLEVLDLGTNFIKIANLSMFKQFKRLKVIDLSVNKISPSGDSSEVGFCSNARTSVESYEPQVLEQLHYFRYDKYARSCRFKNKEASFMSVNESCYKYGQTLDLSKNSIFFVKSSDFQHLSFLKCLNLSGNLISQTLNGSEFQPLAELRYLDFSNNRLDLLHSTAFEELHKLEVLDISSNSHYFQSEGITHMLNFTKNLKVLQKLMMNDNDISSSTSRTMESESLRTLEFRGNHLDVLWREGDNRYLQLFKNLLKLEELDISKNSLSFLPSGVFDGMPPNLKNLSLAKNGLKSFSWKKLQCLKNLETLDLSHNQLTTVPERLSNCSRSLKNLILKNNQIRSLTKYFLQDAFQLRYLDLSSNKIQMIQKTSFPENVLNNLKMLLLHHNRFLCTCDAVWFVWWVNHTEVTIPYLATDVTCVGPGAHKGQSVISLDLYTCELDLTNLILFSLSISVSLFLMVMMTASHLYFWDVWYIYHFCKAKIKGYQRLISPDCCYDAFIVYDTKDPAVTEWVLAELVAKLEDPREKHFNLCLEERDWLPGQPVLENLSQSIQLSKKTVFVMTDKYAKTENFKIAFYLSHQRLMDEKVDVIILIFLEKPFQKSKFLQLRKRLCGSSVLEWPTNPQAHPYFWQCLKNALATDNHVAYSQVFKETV
Procedure, shortened: as §1

Compound | TLR8 LEC (human TLR8) [µM] | minimal effective concentration [1] [µM] | TLR7 LEC (human TLR7) [µM]
CCC[C@@H](CCO)Nc1nc(N)nc2ccn(Cc3cscn3)c12 [Compound 85] | 10.14 | 0.002 | 0.03
CCCCNc1nc(N)nc2cc(F)n(Cc3ccccc3)c12 [Compound 86] | >25 | 0.47 | 1.63
CCC[C@@H](CCO)Nc1nc(N)nc2ccn(CC3CCCCC3)c12 [Compound 87] | >25 | 0.008 | 0.01
CCCC[C@@H](CCO)Nc1nc(N)nc2ccn(Cc3cscn3)c12 [Compound 88] | 2.46 | 0.0006 | 0.01
Cc1cccc(Cn2ccc3nc(N)nc(NCc4cc(C)on4)c32)n1 [Compound 90] | >25 | 0.01 | 0.03
CCCC[C@@H](CCO)Nc1nc(N)nc2ccn(CC3CCCO3)c12 (stereo partly drawn) [Compound 91] | 2.17 | 0.02 | 0.05
CCC[C@@H](CCO)Nc1nc(N)nc2ccn(CC3CCCO3)c12 (stereo partly drawn) [Compound 92] | 4.46 | 0.02 | 0.10
CCCCNc1nc(N)nc2c(F)cn(Cc3ccccc3)c12 [Compound 93] | >25 | 0.12 | 0.26
CCC[C@@H](CCO)Nc1nc(N)nc2c(F)cn(Cc3ccccc3)c12 [Compound 94] | >25 | 0.01 | 0.01
CCCC[C@@H](CCO)Nc1nc(N)nc2c(F)cn(Cc3ccccc3)c12 [Compound 95] | 3.26 | 0.007 | 0.01
CCCCNc1nc(N)nc2ccn(Cc3c(OC)cccc3OC)c12 [Compound 97] | 0.23 | 0.001 | <0.01
CCCC(C)Nc1nc(N)nc2ccn(Cc3c(OC)cccc3OC)c12 (stereo not drawn) [Compound 98] | 0.22 | 0.001 | <0.01
CCCC[C@@H](CCO)Nc1nc(N)nc2ccn(Cc3c(OC)cccc3OC)c12 [Compound 99] | 0.1 | < 0.001 | <0.01
CCC[C@@H](CO)Nc1nc(N)nc2ccn(Cc3c(OC)cccc3OC)c12 [Compound 100] | 0.04 | < 0.001 | <0.01
CCCC[C@@H](CO)Nc1nc(N)nc2ccn(Cc3c(OC)cccc3OC)c12 [Compound 101] | 0.08 | < 0.001 | <0.01
CCC[C@@H](CCO)Nc1nc(N)nc2ccn(Cc3c(OC)cccc3OC)c12 [Compound 102] | 0.14 | < 0.001 | <0.01
COCCNc1nc(N)nc2ccn(Cc3ccccc3OC)c12 [Compound 103] | >25 | 0.018 | 0.032
CC(Nc1nc(N)nc2ccn(C)c12)c1ccccn1 (stereo not drawn) [Compound 104] | >25 | 1.98 | 11.960
COCCn1ccc2nc(N)nc(NC(C)c3ccccn3)c21 (stereo not drawn) [Compound 105] | >25 | 0.194 | 0.827
COCCNc1nc(N)nc2ccn(Cc3cccc(OC)c3)c12 [Compound 107] | >25 | 2.13 | 2.030
CC(C)c1cc(CNc2nc(N)nc3ccn(Cc4cscn4)c23)no1 [Compound 108] | >25 | 0.07 | 0.126
CCC[C@@H](CCO)Nc1nc(N)nc2ccn(Cc3cccc(OC)c3)c12 [Compound 109] | 7.17 | 0.003 | 0.005
COc1ccccc1Cn1ccc2nc(N)nc(NCc3cc(C)on3)c21 [Compound 110] | >25 | 0.001 | 0.002
COCCNc1nc(N)nc2ccn(Cc3cccc(CN4CCCC4)c3)c12 [Compound 111] | >25 | 0.293 | 0.637
Cc1cc(CNc2nc(N)nc3ccn(Cc4ccncc4)c23)no1 [Compound 112] | >25 | 0.209 | 0.741
COCCNc1nc(N)nc2ccn(Cc3cccc(C)n3)c12 [Compound 113] | >25 | 0.807 | 1.320
COCCNc1nc(N)nc2ccn(Cc3ncccc3OC)c12 [Compound 115] | 7.93 | 0.079 | 0.241
CCCCNc1nc(N)nc2ccn(Cc3cccc(CN4CCCC4)c3)c12 [Compound 116] | >25 | 0.022 | 0.049
